Ends that are not written are not given here.
What was measured:
[1] = system: Enterococcus faecium ATCC 700221; assay type: cell-based; conditions: ESKAPE panel; strain not given, ampicillin > 16 fits the 16-to-0.03 µM series of Evotec
Protocol: (§1) Broth microdilution assay. Antimicrobial activity of the peptides was investigated against Gram-negative Escherichia coli TOP10 strain and Gram-positive Staphylococcus carnosus CCM 4838T using broth microdilution assay, based on which the inventors determined the bacterial minimum inhibition concentration (MIC). After cross streaking with bacteria, the petri dishes (with MHA) were incubated for 24 h at 37 °C. Overnight grown cultures were then sub-cultured for 4-6 h at 37 °C in test tubes containing MHB. The sub-cultured solutions were subsequently diluted to a standard concentration of 10^6 colony forming units (CFU) per mL. Cell counts were determined by measuring the optical density at 600 nm. In a flat-bottomed 96 well plate, the inventors prepared a dilution series for the peptides and for the reference antibiotic ampicillin from 50 to 0.1 µM concentration, which was then inoculated with bacteria and incubated for 24 h at 37 °C. Growth control wells were free from peptides or ampicillin to show the viability of the bacteria, and sterility control wells were free from bacterial inoculation to verify the sterility of the medium. The bacterial growth was visually evaluated based on the turbidity. MIC was determined as the lowest concentrated well where no visible bacterial growth was observed. To test the bacteriostatic or bacteriocidal activity of the peptides, 50 µl solution from the highest concentrated well (i.e., 50 µM) was transferred to a test tube containing 4 mL sterile MHB and incubated for 24 h at 37 °C under constant stirring. Streaking of the same solution was done on MHA containing petri dishes and incubated for 24 h at 37 °C to confirm the morphology of the colonies grown. Experiments were performed in triplicates.
(§2) The antimicrobial susceptibility test of the most promising peptide against the recalcitrant ESKAPE pathogens was purchased from Evotec (Macclesfield, UK) for the following strains: Enterococcus faecium ATCC 700221, Staphylococcus aureus NRS 1, Klebsiella pneumoniae ATCC 700603, Acinetobacter baumanni GSAB 164, Pseudomonas aeruginosa ATCC 13437, Escherichia coli ATCC 25922 and Enterobacter aerogenes B207A, and was purchased from Essence Line (Praha, Czech Republic) against the following strains: Enterococcus faecium ATCC 29212, Enterococcus hirae ATCC 10541, Staphylococcus aureus ATCC 6538, ATCC 29213, Methicillin-resistant Staphylococcus aureus (MRSA) CNCTC 7452, Klebsiella pneumoniae ATCC 10031, Acinetobacter baumanni ATCC 19606, Pseudomonas aeruginosa ATCC 15442 and Escherichia coli ATCC 10536 and ATCC 35218. […]

[2] = system: Klebsiella pneumoniae ATCC 700603; assay type: cell-based; conditions: ESKAPE panel; strain not given, ampicillin > 16 fits the 16-to-0.03 µM series of Evotec
Protocol: as §1, §2

[3] = system: Escherichia coli ATCC 25922; assay type: cell-based; conditions: strain not given, assigned to the Evotec series
Protocol: as §1, §2

[4] = system: Acinetobacter baumanni GSAB 164; assay type: cell-based; conditions: ESKAPE panel; strain not given, ampicillin > 16 fits the 16-to-0.03 µM series of Evotec
Protocol: as §1, §2

[5] = system: Gram-positive Staphylococcus carnosus CCM 4838T; assay type: cell-based
Protocol: (§3) Chemicals. […] (Prague, Czech Republic), and Caslo ApS (Kongens Lyngby, Denmark). […] The bacterial stock was stored at -80°C.
as §1

[6] = system: Gram-negative Escherichia coli TOP10 strain; assay type: cell-based; conditions: for Antibacterial activity (MIC in µM) E. coli TOP10: broth microdilution assay
Protocol: as §3, §1

[7] = system: human red blood cells (HRBCs); assay type: cell-based; conditions: hemolysis assay; HRBCs; read-out: Toxicity (EC50 in µM) HRBCs
Protocol: as §3
Hemolysis assay. Hemolytic toxicity of the peptides was evaluated from their ability to lyse the fresh human red blood cells (HRBCs) collected from the University Hospital (Brno, Czech Republic). To obtain the erythrocyte pellets, the blood samples were centrifuged twice at 700×g and subsequently, once at 1000×g, each for 8 min. at 4 °C, which was followed by thorough washing with PBS. Resuspension of the pellets was done in PBS to obtain 0.5% (vol/vol) RBC suspension. In a well plate with 96 V-shaped bottom wells, the peptides were added in a dilution series from 0.1 to 50 µM concentration. Subsequently, HRBC suspension was added in each well. Negative control wells contained only PBS and HRBC suspension without any peptide (i.e., 0% lysis), and positive control wells included 5 µM melittin in the HRBC suspension. After incubation for 1 h at 37 °C, the well plates were centrifuged at 1000×g for 10 min. at 4 °C. Subsequently, the supernatant was collected in a flat-bottomed well plate and the optical density of the released hemoglobin was measured for each well at 415 nm wavelength. The calculated absorbances from the wells were then normalized against the averaged absorbances of the positive and the negative control wells. EC50 value was calculated from the normalized absorbances indicating 50% hemolysis of HRBCs. Experiments were performed in triplicates with three independent blood samples.

[8] = PBS buffer
Protocol: After storing at -20 °C, the peptides were dissolved in phosphate-buffered saline (PBS). […] The pH of all the buffers was adjusted to physiological value 7.4.

[9] = Calcein leakage assay; assay type: biochemical; conditions: calcein leakage, POPC:POPG (1:1 mol/mol) LUVs; for Extent of leakage (in percentage) at increasing peptide-to-lipid ratio (mol/mol) 1:10: peptide-to-lipid ratio 1:10 (mol/mol); for Extent of leakage (in percentage) at increasing peptide-to-lipid ratio (mol/mol) 1:20: peptide-to-lipid ratio 1:20 (mol/mol); for Extent of leakage (in percentage) at increasing peptide-to-lipid ratio (mol/mol) 1:50: peptide-to-lipid ratio 1:50 (mol/mol); for Extent of leakage (in percentage) at increasing peptide-to-lipid ratio (mol/mol) 1:100: peptide-to-lipid ratio 1:100 (mol/mol)
Protocol: as §3
Calcein leakage assay. Pore-forming activity of the peptides was tested by their ability to leak the self-quenching fluorescent dye calcein entrapped within POPC:POPG (1:1 mol/mol) large unilamellar vesicles (LUVs). After mixing DiD to the lipid mixture (in the ratio 1:500 mol/mol), a thin lipid film was created by evaporating of the chloroform, traces of which were removed by desiccating overnight. The lipid film was then dissolved in calcein buffer, followed by vigorous vortexing. The lipid suspension was subsequently subjected to 10 freeze-thaw cycles. To obtain uniform LUVs, the sample was passed 50 times back and forth through an extruder stacked with 100 nm pore size polycarbonate membrane filter. Afterwards, the untrapped calcein was removed on a HiTrap Desalting Column (with Sephadex G-25 Superfine resin) by washing with PBS buffer. The concentration of the lipid suspension was then adjusted to 0.02 mM. The concentration of the peptide solution was 0.1 mM. The inventors monitored the peptide-induced release of calcein from LUVs by the increase in fluorescence intensity after adding increasing amounts of peptides to the LUVs under constant stirring at 25 °C. The investigated range of peptide/lipid molecular ratio was from 1:100 to 1:10. The excitation and emission wavelengths were set to 495 nm and 520 nm, respectively. Maximum fluorescence intensity was obtained by disrupting all the vesicles in the end by adding 10% Triton X-100. Experiments were performed in triplicates with independently prepared lipid vesicles.

[10] = system: human dermal fibroblast (HDF) cell lines; assay: Neutral red uptake assay (cytotoxicity); assay type: cell-based; conditions: HDFs; column stands under the head 'Hemolysis assay'; read-out: Toxicity (EC50 in µM) HDFs
Protocol: Neutral red uptake assay. To evaluate the cytotoxicity of the peptides against human dermal fibroblast (HDF) cell lines, the inventors purchased the neutral red uptake assay from Essence Line (Praha, Czech Republic). The initial cell culture was sub-cultured in supplemented Dulbecco's Modified Eagle Medium (DMEM) and diluted to a cell density of 1 × 10^5 cells/mL. The diluted culture was then seeded into the wells (1 × 10^4

[11] = 24 h at 37 °C, dilution series 50 to 0.1 µM

Substance | MIC against E. faecium [1] | MIC against K. pneumoniae [2] | MIC against E. coli (ESKAPE panel) [3] | MIC against A. baumannii [4] | Antibacterial activity (MIC in µM) S. carnosus ([5]; CCM 4838) | Antibacterial activity (MIC in µM) E. coli TOP10 [6] | EC50 [7] | aggregation / solubilization problem (in words) [8] | Extent of leakage (in percentage) at increasing peptide-to-lipid ratio (mol/mol) 1:10 [9] | Extent of leakage (in percentage) at increasing peptide-to-lipid ratio (mol/mol) 1:20 [9] | Extent of leakage (in percentage) at increasing peptide-to-lipid ratio (mol/mol) 1:50 [9] | Extent of leakage (in percentage) at increasing peptide-to-lipid ratio (mol/mol) 1:100 [9] | MIC against S. carnosus [5, 11] | times higher MIC than that of ampicillin, S. carnosus ([5]; ratio to ampicillin) | MIC against E. coli [6, 11] | times lower MIC than the MIC of ampicillin, E. coli ([6]; ratio to ampicillin) | EC50 [10]
KKKKLKKILKKLFQFINQLDNQLQDIKKKK-NH2 [KDFA2i+11-NH2] | 1.9 µM | 3.8 µM | 1.4 µM | 1.4 µM | 0.2 µM | 0.2 µM | > 50 µM | – | – | – | – | – | – | – | – | – | –
KKKKLKKILKKLFQFINQLDNQLQDIAQNA-NH2 [KDFA2i+7-npNH2] | – | – | – | – | – | – | – | peptide aggregation | Aggregated peptides and no leakage | Aggregated peptides and no leakage | Aggregated peptides and no leakage | Aggregated peptides and no leakage | – | – | – | – | –
KKKKLKKILKKLFQFIDQLDNDLQDIKKKK (not fully specified (C-terminus)) [KDFC16+9-NH2, group C peptide, net charge +9 e; 89] | – | – | – | – | – | 0.8 µM | > 50 µM | – | 99.28 ± 1.2 percentage | 98.3 ± 5.2 percentage | 97.4 ± 9.3 percentage | 78.2 ± 4.5 percentage | 0.4 µM | 4 | 0.8 µM | 15 | 10 µM

From EP4129319A1, “PORE-FORMING ANTIMICROBIAL PEPTIDES” (priority 2021, dated 2023)
